Experimental data from PubChem BioAssay (NCI).
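Step 1: Grow cells in 96-well plates. Step 2: Expose to compound for 48 hours at 5 concentrations. Step 3: Interpolate endpoints linearly; if unreached, use highest concentration. GI50: concentration for 50% inhibition of growth. TGI denotes the concentration required for complete inhibition of growth.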

Assays:
Experiment in all cases: inhibition of tumour cell growth, NCI panel, 48 h
A498 renal = tested on: A498 renal
COLO 205 colon = tested on: COLO 205 colon
HCC-2998 colon = tested on: HCC-2998 colon
HCT-15 colon = tested on: HCT-15 colon
MOLT-4 leukemia = tested on: MOLT-4 leukemia
NCI/ADR-RES ovarian = tested on: NCI/ADR-RES ovarian
OVCAR-4 ovarian = tested on: OVCAR-4 ovarian
SF-539 CNS = tested on: SF-539 CNS
SK-MEL-28 melanoma = tested on: SK-MEL-28 melanoma
SN12C renal = tested on: SN12C renal

| SMILES | GI50 (A498 renal) [µM] | TGI (A498 renal) [µM] | GI50 (COLO 205 colon) [µM] | TGI (COLO 205 colon) [µM] | GI50 (HCC-2998 colon) [µM] | TGI (HCC-2998 colon) [µM] | GI50 (HCT-15 colon) [µM] | TGI (HCT-15 colon) [µM] | GI50 (MOLT-4 leukemia) [µM] | TGI (MOLT-4 leukemia) [µM] | GI50 (NCI/ADR-RES ovarian) [µM] | TGI (NCI/ADR-RES ovarian) [µM] | GI50 (OVCAR-4 ovarian) [µM] | TGI (OVCAR-4 ovarian) [µM] | GI50 (SF-539 CNS) [µM] | TGI (SF-539 CNS) [µM] | GI50 (SK-MEL-28 melanoma) [µM] | TGI (SK-MEL-28 melanoma) [µM] | GI50 (SN12C renal) [µM] | TGI (SN12C renal) [µM] |
| --- | --- | --- | --- | --- | --- | --- | --- | --- | --- | --- | --- | --- | --- | --- | --- | --- | --- | --- | --- | --- |
| Cc1cc(C)c(NC(=O)c2sc3nc4c(cc3c2N)C(=O)CCC4)c(C)c1 | 3.4 | > 51.5 | 3.23 | > 100 | 3.07 | > 78.2 | 2.59 | > 100 | 5.68 | > 100 | 2.08 | 6.45 | 6.89 | > 100 | 2.59 | > 30.6 | 5.9 | > 100 | 7.42 | > 100 |
| COc1ccc(C[N+](C)(C)N)cc1OC |  | > 100 | > 100 | > 100 |  |  | > 100 | > 100 | > 100 | > 100 | > 100 | > 100 | > 100 | > 100 | > 100 | > 100 | > 100 | > 100 | > 100 | > 100 |
| CC(=O)O[C@H]1CCC2[C@@H]3CC[C@]4(C)CC(=O)C=C[C@]4(C)C3CC[C@@]21C (stereo not given in full) |  | > 100 |  | 31.3 |  | > 88.5 |  | 38.7 |  | 47.9 |  | 40.5 |  | 31.8 |  | 31.8 |  | 33.9 |  | 55.9 |
| CC/C=C\C[C@H](O)C/C=C1/C(=O)C=C[C@@H]1C/C=C\CCCC(=O)OC | 4.91 | 14.4 | 1.84 | 4.02 | 2.09 | 3.68 | 0.538 | 2.79 | 0.945 | 4.8 | 2.61 | 10.8 | 3.48 | 16.2 | 2.75 | 7.33 | 1.81 | 4.37 | 2.55 | 10.2 |
| COc1ccc(/C=C/c2c(C(=O)/C=C/c3ccccc3)c(C)nc3ccccc23)cc1 | 1.7 | 3.15 | 1.76 | 3.5 | 1.88 | 3.48 | 1.38 | 3.77 | 1.33 | 5.69 | 2.51 | 7.52 | 2.27 | 6.85 | 1.76 | 3.2 | 1.88 | 3.47 | 2.05 | 4.63 |
| CCCC(CCC)NCC(O)c1cc(-c2ccc(C(F)(F)F)cc2)nc(C(F)(F)F)c1 (stereo not given) | 1.35 | 2.67 | 2 | 3.63 | 1.68 | 3.1 | 1.77 | 3.53 | 1.89 | 3.84 | 1.63 | 3.25 | 1.83 | 3.32 | 1.67 | 3.26 | 1.92 | 3.45 | 1.69 | 3.2 |
| S=c1ssc(N2CCOCC2)c1Cl |  |  | > 100 | > 100 | 30.6 | > 100 | 23.6 | > 100 | 31.8 | > 100 | 43.9 | > 100 | > 100 | > 100 | 31.4 | 76.3 | 38.2 | 57.9 | 72.7 | > 100 |
| COCC[C@H]1CCC/C=C/[C@@H]2C[C@H](O)C[C@H]2[C@H](O)/C=C/C(=O)O1 | 0.0231 | 0.107 | 0.0227 | 0.0472 | 0.079 |  | 0.314 | > 100 | 0.353 | > 100 | 0.0472 |  | 0.0528 |  | 0.213 | > 100 | 0.0345 | 0.153 | 0.274 | > 100 |
| O=C(Nc1n[nH]c2cc(-c3ccccc3)ccc12)C1CC1 | 16.1 | > 25 | 12.4 | > 25 | 8.07 | > 25 | 4.03 | > 25 | > 16.6 | > 25 | 1.79 | > 25 | > 25 | > 25 | 13 | > 25 | > 22.1 | > 25 | 16.3 | > 25 |
| CC1=C(/C=C/Cl)CC(Cl)C(C)(Cl)C1 (stereo not given) |  | > 100 |  | > 100 |  | > 100 |  | > 100 |  | > 100 |  | > 100 |  | > 100 |  | > 100 |  | > 100 |  | > 100 |
| CCCCCCCCCCCCCCCC(=O)OCC(C[As](=O)(O)O)OC(=O)CCCCCCCCCCCCCCC (stereo not given) |  | > 100 |  | > 100 |  | > 100 |  | > 100 |  | > 100 |  | > 100 |  | > 100 |  | > 100 |  | > 100 |  | > 100 |
| O=c1cc(NCC(O)CN2CCCC2)n(Cc2ccccc2)c(=O)n1Cc1ccccc1 (stereo not given) | > 100 | > 100 | 19.3 | 40.4 | 25.8 | 77.7 | 50.9 | > 100 | 24.3 | 72.8 | > 100 | > 100 | 58.3 | > 100 | > 100 | > 100 | 16.7 | 34.6 | > 100 | > 100 |
| Cc1cc2nc(C=C(C(F)(F)F)C(F)(F)F)oc2cc1C |  | > 10 |  | 0.392 |  | 6.9 |  | 9.62 |  | 5.66 |  | 5.93 |  | 7.78 |  | 6.43 |  | > 10 |  | 5.1 |
| O=S(=O)(c1ccc(NC(=S)NC23CC4CC(CC(C4)C2)C3)cc1)N1CCCCC1 | 2.04 | 7.79 | 1.82 | 3.22 | 3.29 | 19.9 | 3.22 | > 100 | 3.24 | 11.4 | 3.46 | > 100 | 4.01 | > 100 | 4.19 | > 100 | 5.23 | > 100 | 3.23 | > 100 |
| c1ccc(Sc2ccc(Cc3nc4cc5ccccc5cc4[nH]3)cc2)cc1 | 21.5 | 57.8 | 10.1 | 30.9 |  |  | 0.205 | 53.9 | 8.18 | > 100 | 15.5 | > 62.7 | 57.5 | > 100 | 1.34 | 19.5 | 37.7 | > 100 | 16.8 | 76.5 |
| C=CCCCCC/C=C\[C@@H](O)C#CC#C/C=C/CO | > 100 | > 100 | > 100 | > 100 | > 100 | > 100 | > 100 | > 100 | 18.3 | 43.8 | > 100 | > 100 | > 100 | > 100 | > 100 | > 100 | 0.867 | > 100 | 57.5 | > 100 |
| CCCCC(CC)COC(=O)C[N+](C)(C)CCOC(c1ccccc1)c1ccccc1 (stereo not given) | 3.12 | 15.2 | 1.93 | 4.12 | 1.75 | 3.29 | 13.8 | 31.2 | 2.5 | 6.66 | 23.5 | 70.3 | 2.4 | 6.99 | 2.32 | 5.27 | 1.8 | 3.31 | 2.43 | 6 |
| OCC1OC(n2cnc3c2NC=NC[C@H]3O)C(Cl)C1O (stereo not given in full) |  | > 100 |  | > 100 |  | > 100 |  | > 100 |  | > 100 |  | > 100 |  | > 100 |  | > 100 |  | > 100 |  | > 100 |
| COc1ccc(C(=O)c2cc(C)c(OC)c(C)c2)cc1OC(=O)CCl | 1.45 | 9.51 | 0.751 | 18.8 | 0.0391 | > 79.2 | < 0.01 | > 100 | < 0.0158 | > 100 | < 0.01 | > 63.5 | 0.866 | > 100 | < 0.01 | < 0.01 | 0.0396 | > 100 | < 0.01 | > 100 |
| CC(C)c1ccc(-c2cc(-c3cn[nH]c3-c3ccccn3)ccn2)cc1 | > 13.6 | > 25 | 13.3 | > 25 | 10.4 | > 25 | 8.65 | > 25 | 8.06 | > 24.1 | 7.98 | > 25 | 10.4 | > 25 | 25 | > 25 | > 25 | > 25 | 15.9 | > 25 |
| CCOC(=O)C1CCN(S(=O)(=O)/N=C2/NC(=O)NC2=C(Cl)Cl)CC1 | 2.65 | 12.1 | 2.08 | 3.83 | 2.05 | 3.67 | 1.82 | 3.56 | 1.88 | 4.46 | 4.36 | 41.4 |  |  | 0.525 | 4.44 | 1.8 | 3.51 | 1.55 | 3.1 |
| CCNCCNc1cc(-c2ccc(C(F)(F)F)cc2)c(C#N)c2nc3ccccc3n12 | 1.86 | 3.33 | 1.01 | 2.41 | 1.8 | 3.4 | 0.612 | 1.9 | 1.31 | 3.29 | 1.52 | 2.98 | 0.469 | 1.78 |  |  | 1.54 | 3.05 | 1.34 | 2.83 |
| C=C(C)[C@@H]1CC[C@]2(CO)CC[C@]3(C)[C@H](CC[C@@H]4[C@@]5(C)C=C(C#N)C(=O)C(C)(C)[C@@H]5CC[C@]43C)[C@@H]12 | 1.37 | 2.99 | 1.38 | 2.72 | 2.03 | 4.22 |  |  |  |  | 1.81 | 5.04 | 0.769 | 5.11 | 2.61 | 8.34 |  |  | 1.17 | 4.27 |
| COc1ccc(-c2nc3ccccn3c2/C=C/C(=O)c2cc(OC)c(OC)c(OC)c2)cc1OC | 2.93 | 17.8 | 3.92 | > 100 | 3.79 | 15.1 | 3.73 | 35.1 |  |  | 2.18 | 8.04 |  |  | 2.71 | 14.7 | 3.3 | 14.7 | 4.1 | 83.7 |
| Cc1ccc(N=C/C=C(\Nc2ccc(C)cc2)c2ccc(Cl)cc2)cc1 | 16.8 | 34.1 | 7.11 | > 100 |  |  | 5.77 | > 100 | 4.25 | > 100 | 5.1 | 22.1 | 47.4 | > 100 | 6.1 | 26.6 | 4.99 | 27.1 | 11.7 | 33.3 |
| CCc1nc2cc(F)c(/C=C/C(=O)NO)cc2c(=O)n1CCc1ccccc1 | 0.149 | 0.736 | 0.221 | 0.537 | 0.381 | 12.7 | 0.36 | 18.6 | 0.353 | 29.1 | 0.284 | 0.982 | 0.314 | 14.9 | 0.341 | 3.36 | 0.381 | 11.5 |  |  |
| CC12OC(C(=O)C13CC3)C1C(=O)c3ccc4c(ccc5ccccc54)c3C(=O)C12 (stereo not given) |  |  | 32.2 | > 100 | 20.4 | > 100 |  |  | 28.9 | > 100 | 41.2 | > 100 |  |  | 32.2 | > 100 | 66.3 | > 100 |  |  |
| COc1cc2c3c(n(CCCN)c(=O)c2cc1OC)-c1ccc(C#N)cc1C3=O |  |  | 13.2 | 28.7 | 3.05 | 15 | 15.4 | 30.6 | 0.748 | 3.49 | 48 | > 100 | 20 | 41.3 |  |  | 18.5 | 35.7 | 16.8 | 32.8 |
